Experimental findings from PubChem BioAssay (NCI) are described below.

Common to all, as to test: NCI-60 cell line screen, 48 h
Assay [1] relates to A549 NSCLC.
Assay [2] has as its system CCRF-CEM leukemia.
Assay [3] has as its system HS 578T breast.
Assay [4] concerns HT29 colon.
For assay [5], the system named is MCF7 breast.
Assay [6] has as its system NCI-H23 lung.
Assay [7] concerns NCI-H522 lung.
In assay [8] the test system is OVCAR-3 ovarian.
Assay [9] deals with SK-OV-3 ovarian.
Assay [10] deals with UACC-62 melanoma.

Several values for one entry are separate records, joined by “and”; a condition that tells them apart may be missing. Equal values may be shown once.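 Assay format: 96-well plates, 48-hour exposure. Here, GI50 denotes the concentration required for 50% inhibition of growth. TGI marks complete inhibition of growth.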 Bounds are passed on as bounds.

On to `Cc1ccc(S(=O)(=O)Nc2ccc(-c3cc(-c4cccc(F)c4)c(C#N)c(N)n3)cc2)cc1`, for which the GI50 in assay [1] is 3.11 µM; in assay [2], 2.26 µM; in assay [3], 2.28 µM; in [4], 3.4 µM; in [5], 2.32 µM; in [6], 2.48 µM. For the same compound, the GI50 in assay [7] was 1.69 µM; in assay [8], 1.63 µM; in [9], 8.92 µM; in assay [10], 1.52 µM. Further, the TGI came to 15.7 µM in assay [1]; 30.8 µM in assay [2]; 7.48 µM in assay [3]; 12.3 µM in assay [4]; 10 µM in assay [5]; 7.96 µM in assay [6]. The TGI is 4.91 µM in [7], 3.12 µM in assay [8], 23.3 µM in [9] and 3.44 µM in assay [10].

As for `COc1cccc2c1C(=O)c1c(O)c3c(c(O)c1C2=O)CC(O)(C(=O)CO)CC3OC1CC(N)C(O)C(C)O1` (centres undefined), the GI50 in [1] is 4.17 µg/mL and 22.6 µg/mL; in assay [2] it was 0.801 µg/mL and 4.97 µg/mL; in assay [3], 33.8 µg/mL; in assay [4], 15.7 µg/mL and 49.5 µg/mL; in assay [5], 2.76 µg/mL and 10.7 µg/mL; in [6], 11.3 µg/mL and 49.1 µg/mL. For the same compound, the GI50 was 4.07 µg/mL in [7]; 22.6 µg/mL and 35.8 µg/mL in [8]; 22.6 µg/mL and 14.9 µg/mL in [9]; 7.54 µg/mL and 18.6 µg/mL in assay [10]. For the same compound, the TGI is 75 µg/mL and > 150 µg/mL in assay [1]; 75 µg/mL in [3]; 75 µg/mL and > 150 µg/mL in [4]; 75 µg/mL and > 150 µg/mL in [5]; 75 µg/mL and > 150 µg/mL in assay [6]; 75 µg/mL in [7]. The TGI in [8] is 75 µg/mL and > 150 µg/mL; in assay [9], 75 µg/mL and 143 µg/mL; in assay [10], 27.8 µg/mL and 62 µg/mL.

`CN(C)CCNC(=O)NC[C@H]1CC[C@@H]2[C@H](O1)c1cc(C(F)(F)F)ccc1N[C@H]2c1ccccc1`: the GI50 in [1] was 0.175 µM; in assay [2], 0.137 µM; in assay [3] it was 0.173 µM; in [4], 0.303 µM; in assay [5] it was 0.0389 µM; in [6] it was 0.495 µM. Moreover, the GI50 is 0.0506 µM in assay [7], 0.264 µM in assay [8], 0.0425 µM in assay [9] and 0.276 µM in assay [10]. The TGI is 17.4 µM in [1]; 3.85 µM in assay [2]; 18.1 µM in [3]; 11.2 µM in assay [4]; 13.8 µM in assay [5]; over 48.3 µM in assay [6]. The TGI in assay [7] stood at 0.303 µM; in assay [8], 10.3 µM; in assay [9], 10 µM; in assay [10], 15.9 µM.

For `COC1=CC(=O)c2nc(Cl)ccc2C1=O`, the GI50 was 12.8 µM in assay [1]; 2.23 µM in assay [2]; 2.22 µM in assay [3]; 2.21 µM in assay [4]; 1.91 µM in assay [5]; 1.59 µM in assay [6]. Besides, the GI50 in assay [7] is 1.7 µM; in assay [8] it was 1.79 µM; in assay [9] it was 11 µM; in assay [10] it was 1.77 µM. Also, the TGI in assay [1] was 26.1 µM; in assay [2], over 100 µM; in [3] it was 6.18 µM; in [4] it was 4.74 µM; in [5] it was 4.19 µM; in assay [6], 3.33 µM. Also, the TGI in [7] is 3.57 µM; in [8], 3.19 µM; in [9], 23.3 µM; in assay [10], 3.45 µM.

For `O=C(/C=C/OC(=O)c1cccc(Cl)c1)c1ccc(Cl)cc1`, the GI50 in assay [1] is over 100 µM; in [2] it was 37.5 µM; in assay [3], 23.2 µM; in [4] it was 50 µM; in assay [5] it was 48.7 µM; in assay [6], 41.7 µM. Further, the GI50 in assay [7] was over 93.3 µM; in assay [8] it was 21.7 µM; in assay [9] it was 35.8 µM; in assay [10], over 80.8 µM. Besides, the TGI in assay [1] is over 100 µM; in [2], over 100 µM; in assay [3] it was over 70.4 µM; in assay [4], over 100 µM; in [5] it was over 100 µM; in [6] it was over 100 µM. For the same compound, the TGI was over 100 µM in assay [7], over 74 µM in [8], over 88.4 µM in assay [9] and over 100 µM in assay [10].

`CN(C)CCOC(=O)Nc1nc2ccc(Sc3ccccc3)cc2[nH]1`: the GI50 in [1] was 4.97 µM; in assay [2], 2.67 µM; in assay [3] it was 4 µM; in assay [4], 3.57 µM; in assay [5] it was 1.35 µM; in assay [6], 4.08 µM. Besides, the GI50 in assay [7] was 2.58 µM; in assay [8] it was 2.66 µM; in [9], 3.87 µM; in assay [10], 3.74 µM. The TGI in [1] was determined as 18.3 µM; in assay [2] it was 16.3 µM; in [3] it was 28.8 µM; in [4], 10.7 µM; in assay [5], 15.2 µM; in [6], 19.5 µM. Besides, the TGI in [7] was 10.8 µM; in assay [8] it was 9.06 µM; in assay [9] it was 23.7 µM; in assay [10] it was 16.7 µM.

In the case of `CCCCCC[C@H](C)NC(=O)c1ccc(Nc2nc3ccccc3c3occc23)cc1`, the GI50 in [1] was 4.35 µM; in assay [2], 3.68 µM; in assay [3], 4.68 µM; in assay [4], 2.53 µM; in [5], 5.86 µM; in assay [6] it was 2.41 µM. Besides, the GI50 is 2.5 µM in [7], 3.11 µM in assay [8], 5.11 µM in assay [9] and 16 µM in assay [10]. Also, the TGI was over 100 µM in assay [1]; over 100 µM in [2]; 67.6 µM in assay [3]; over 100 µM in assay [4]; over 100 µM in assay [5]; 6.08 µM in [6]. For the same compound, the TGI in [7] was 5.74 µM; in assay [8], 19.7 µM; in assay [9], over 100 µM; in [10] it was 35.5 µM.
